Earlier results, collected in US20140056935A1, “PEPTIDE WHICH CAN INDUCE ANTIBODY CAPABLE OF RECOGNIZING STEREOSTRUCTURE OF HIV” (priority 2011, published 2014).

System: HIV
Details: MAGI assay, Non-Patent Document 17

enfuvirtide
activity relative to C34 native peptide monomer in terms of EC50 values: about 10 times
